Reference: PMC12520178, “Turn-engineering tunes the conformational rigidity of β-hairpin AMPs in achieving membrane selectivity and killing drug-resistant ESKAPE pathogens” (Chemical Science, 2025)
In brackets after ≈: the same amount, converted by molar mass. Like-named read-outs stand apart in the source and are kept apart here. Where a SMILES comes first, the peptide text is derived from it. Bridges are numbered along the chain shown (N, C = ends). [ ]: non-standard residue; d: D form. NMeR = CN[C@@H](CCCNC(=N)N)C(=O)O; dNMeR = CN[C@H](CCCNC(=N)N)C(=O)O

Key:
[1] = system: human red blood cells; assay: Hemolysis assay against human red blood cells; conditions: ≥10% hemolysis against human RBCs; 4% (v/v) hRBCs in PBS, 1.5 h at 37 °C, 405 nm; n = 3
[2] = system: Escherichia coli; type: cell-based
[3] = system: Staphylococcus aureus; assay: microbe, parasite or virus in culture; type: cell-based
[4] = system: Pseudomonas aeruginosa; type: cell-based
[5] = system: human red blood cells; conditions: red cells of human
[6] = system: Klebsiella pneumoniae; type: cell-based
[7] = system: Acinetobacter baumannii; type: cell-based
[8] = system: human red blood cells; conditions: cited from earlier work
Description: These motifs were chosen based on their ability to induce 81% (-D-Ala-NMeArg–) and 92% (-D-Val-NMeArg-) β-hairpin folded fractions within a 12-mer linear peptide in aqueous solution.[24]

[9] = against E. coli, microbroth dilution, 5x10^5 cfu/mL, 20-24 h at 37 °C, turbidity 600 nm, n = 5, median

| Structure (SMILES) | MHC10 (μM), minimum hemolytic concentration [1] [µM] | MIC90 [2, 9] [µM] | MIC (μM) sa [3] [µM] | MIC90 [2] [µM] | MIC (μM) pa [4] [µM] | MHC10 (μM), minimum hemolytic concentration [5] [µM] | MIC (μM) kp [6] [µM] | MIC (μM) ab [7] [µM] | MIC (μM) ec [2] [µM] | hemolysis (toxicity) [8] |
| --- | --- | --- | --- | --- | --- | --- | --- | --- | --- | --- |
| CC[C@H](C)[C@@H]1NC(=O)[C@H](CCCNC(=N)N)N(C)C(=O)[C@@H](C(C)C)NC(=O)[C@H](Cc2ccc(O)cc2)NC(=O)[C@@H]2CSSC[C@H](NC1=O)C(=O)N[C@@H](Cc1ccc(O)cc1)C(=O)N[C@@H](CCCNC(=N)N)C(=O)N[C@@H](CCCNC(=N)N)C(=O)N[C@H](C(=O)N[C@@H](CCCNC(=N)N)C(N)=O)CSSC[C@H](NC(=O)[C@H](Cc1c[nH]c3ccccc13)NC(=O)[C@@H](N)CCCCN)C(=O)N[C@@H](Cc1ccccc1)C(=O)N[C@@H](CCCNC(=N)N)C(=O)N[C@@H](C(C)C)C(=O)N2 [4b] (H-KWCFRVCY[dV][NMeR]ICYRRCR-NH2; disulfide 3-16, 7-12) | 12.5 | 0.2 (≈ 0.464 µg/mL) | – | – | – | – | – | – | – | – |
| CC(C)[C@@H]1NC(=O)[C@H](CCCNC(=N)N)NC(=O)[C@H](Cc2ccccc2)NC(=O)[C@@H](NC(=O)[C@H](Cc2c[nH]c3ccccc23)NC(=O)[C@H](CCCNC(=N)N)NC(=O)[C@@H](N)CCCNC(=N)N)CSSC[C@@H](C(=O)N[C@@H](CCCNC(=N)N)C(N)=O)NC(=O)[C@H](CCCCN)NC(=O)[C@H](CCCNC(=N)N)NC(=O)[C@H](Cc2ccc(O)cc2)NC(=O)[C@@H]2CSSC[C@H](NC1=O)C(=O)N[C@@H](Cc1ccc(O)cc1)C(=O)N[C@H](C)C(=O)N(C)[C@@H](CCCNC(=N)N)C(=O)N[C@@H](Cc1ccccc1)C(=O)N2 [3a] (H-RRWCFRVCY[dA][NMeR]FCYRKCR-NH2; disulfide 4-17, 8-13) | 12.5 | 0.7 (≈ 1.74 µg/mL) | – | – | – | – | – | – | – | – |
| CC(C)C[C@H](NC(=O)[C@H](CCCNC(=N)N)NC(=O)CNC(=O)CNC(=O)[C@@H](N)CCCNC(=N)N)C(=O)N[C@H](C(=O)N[C@@H](Cc1ccc(O)cc1)C(=O)N[C@H](C(=O)N[C@@H](CCCNC(=N)N)C(=O)N[C@@H](CCCNC(=N)N)C(=O)N[C@@H](CCCNC(=N)N)C(=O)N[C@@H](Cc1ccccc1)C(=O)N[C@H](C(=O)N[C@H](C(=O)N[C@H](C(=O)N[C@H](C(=O)NCC(=O)N[C@@H](CCCNC(=N)N)C(N)=O)C(C)C)[C@@H](C)O)C(C)C)[C@@H](C)O)[C@@H](C)O)[C@@H](C)O [2c] (H-RGGRLTYTRRRFTVTVGR-NH2) | – | – | 6.3 (≈ 13.6 µg/mL) | 1 (≈ 2.15 µg/mL) | 3.1 (≈ 6.67 µg/mL) | >200 | 3.1 (≈ 6.67 µg/mL) | 3.1 (≈ 6.67 µg/mL) | – | – |
| CC(C)[C@H](NC(=O)[C@H](CCCNC(=N)N)NC(=O)[C@H](Cc1ccccc1)NC(=O)[C@@H](NC(=O)[C@H](Cc1c[nH]c2ccccc12)NC(=O)[C@H](CCCNC(=N)N)NC(=O)[C@@H](N)CCCNC(=N)N)[C@@H](C)O)C(=O)N[C@H](C(=O)N[C@@H](Cc1ccc(O)cc1)C(=O)N[C@H](C)C(=O)N(C)[C@@H](CCCNC(=N)N)C(=O)N[C@@H](Cc1ccccc1)C(=O)N[C@H](C(=O)N[C@@H](Cc1ccc(O)cc1)C(=O)N[C@@H](CCCNC(=N)N)C(=O)N[C@@H](CCCCN)C(=O)N[C@H](C(=O)N[C@@H](CCCNC(=N)N)C(N)=O)[C@@H](C)O)[C@@H](C)O)[C@@H](C)O [3d] (H-RRWTFRVTY[dA][NMeR]FTYRKTR-NH2) | – | – | 3.1 (≈ 7.68 µg/mL) | 0.4 (≈ 0.991 µg/mL) | 0.4 (≈ 0.991 µg/mL) | 50 | 2.4 (≈ 5.95 µg/mL) | 0.8 (≈ 1.98 µg/mL) | 0.4 (≈ 0.991 µg/mL) | – |
| CC(C)[C@@H]1NC(=O)[C@H](CCCNC(=N)N)NC(=O)[C@H](Cc2ccccc2)NC(=O)[C@@H](NC(=O)[C@H](Cc2c[nH]c3ccccc23)NC(=O)[C@H](CCCNC(=N)N)NC(=O)[C@@H](N)CCCNC(=N)N)CSSC[C@@H](C(=O)N[C@@H](CCCNC(=N)N)C(N)=O)NC(=O)[C@H](CCCCN)NC(=O)[C@H](CCCNC(=N)N)NC(=O)[C@H](Cc2ccc(O)cc2)NC(=O)[C@@H]2CSSC[C@H](NC1=O)C(=O)N[C@@H](Cc1ccc(O)cc1)C(=O)N[C@H](C(C)C)C(=O)N(C)[C@@H](CCCNC(=N)N)C(=O)N[C@@H](Cc1ccccc1)C(=O)N2 [3b] (H-RRWCFRVCY[dV][NMeR]FCYRKCR-NH2; disulfide 4-17, 8-13) | 6.25 | 0.9 (≈ 2.26 µg/mL) | – | – | – | – | – | – | – | – |
| CC(C)[C@H](NC(=O)[C@H](CCCNC(=N)N)NC(=O)[C@H](Cc1ccccc1)NC(=O)[C@@H](NC(=O)[C@H](Cc1c[nH]c2ccccc12)NC(=O)[C@H](CCCNC(=N)N)NC(=O)[C@@H](N)CCCNC(=N)N)[C@@H](C)O)C(=O)N[C@H](C(=O)N[C@@H](Cc1ccc(O)cc1)C(=O)N[C@@H](CCCNC(=N)N)C(=O)NCC(=O)N[C@@H](Cc1ccccc1)C(=O)N[C@H](C(=O)N[C@@H](Cc1ccc(O)cc1)C(=O)N[C@@H](CCCNC(=N)N)C(=O)N[C@@H](CCCCN)C(=O)N[C@H](C(=O)N[C@@H](CCCNC(=N)N)C(N)=O)[C@@H](C)O)[C@@H](C)O)[C@@H](C)O [3c] (H-RRWTFRVTYRGFTYRKTR-NH2) | – | – | 6.3 (≈ 15.4 µg/mL) | 1.9 (≈ 4.65 µg/mL) | 6.3 (≈ 15.4 µg/mL) | 100 | 6.3 (≈ 15.4 µg/mL) | 3.1 (≈ 7.59 µg/mL) | – | – |
| CC(C)[C@@H]1NC(=O)CNC(=O)[C@H](CCCNC(=N)N)NC(=O)[C@H](C(C)C)NC(=O)[C@H](CCCNC(=N)N)NC(=O)[C@H](C)NC(=O)[C@H](Cc2ccc(O)cc2)NC(=O)[C@H](C(C)C)NC(=O)[C@@H](NC(=O)[C@H](Cc2c[nH]c3ccccc23)NC(=O)[C@@H](N)CCCNC(=N)N)CSSC[C@@H](C(=O)N[C@@H](Cc2c[nH]c3ccccc23)C(=O)O)NC(=O)[C@H](CCCNC(=N)N)NC(=O)[C@H](CCCNC(=N)N)NC(=O)[C@H](Cc2ccc(O)cc2)NC(=O)[C@H](CCCNC(=N)N)NC1=O [compound 1, reference compound] (H-RWCVYARVRGVRYRRCW-OH; disulfide 3-16) | – | – | 1.6 (≈ 3.65 µg/mL) | 1.2 (≈ 2.74 µg/mL) | 3.12 (≈ 7.13 µg/mL) | – | 0.8 (≈ 1.83 µg/mL) | 0.8 (≈ 1.83 µg/mL) | 1.2 (≈ 2.74 µg/mL) | no measurable hemolysis |
| CC(C)C[C@H](NC(=O)[C@H](CCCNC(=N)N)NC(=O)CNC(=O)CNC(=O)[C@@H](N)CCCNC(=N)N)C(=O)N[C@H]1CSSC[C@@H](C(=O)N[C@H](C(=O)NCC(=O)N[C@@H](CCCNC(=N)N)C(N)=O)C(C)C)NC(=O)[C@H](C(C)C)NC(=O)[C@@H]2CSSC[C@H](NC(=O)[C@H](Cc3ccc(O)cc3)NC1=O)C(=O)N[C@@H](CCCNC(=N)N)C(=O)N[C@@H](CCCNC(=N)N)C(=O)N[C@@H](CCCNC(=N)N)C(=O)N[C@@H](Cc1ccccc1)C(=O)N2 [compound 2, reference compound] | – | – | 3.1 (≈ 6.68 µg/mL) | 0.3 (≈ 0.647 µg/mL) | 0.6 (≈ 1.29 µg/mL) | 3.12 | 0.6 (≈ 1.29 µg/mL) | 0.4 (≈ 0.862 µg/mL) | 0.3 (≈ 0.647 µg/mL) | – |
| CC[C@H](C)[C@@H]1NC(=O)[C@H](CCCNC(=N)N)N(C)C(=O)[C@@H](C)NC(=O)[C@H](Cc2ccc(O)cc2)NC(=O)[C@@H]2CSSC[C@H](NC1=O)C(=O)N[C@@H](Cc1ccc(O)cc1)C(=O)N[C@@H](CCCNC(=N)N)C(=O)N[C@@H](CCCNC(=N)N)C(=O)N[C@H](C(=O)N[C@@H](CCCNC(=N)N)C(N)=O)CSSC[C@H](NC(=O)[C@H](Cc1c[nH]c3ccccc13)NC(=O)[C@@H](N)CCCCN)C(=O)N[C@@H](Cc1ccccc1)C(=O)N[C@@H](CCCNC(=N)N)C(=O)N[C@@H](C(C)C)C(=O)N2 [4a] (H-KWCFRVCY[dA][NMeR]ICYRRCR-NH2; disulfide 3-16, 7-12) | 12.5 | 0.3 (≈ 0.688 µg/mL) | – | – | – | – | – | – | – | – |
| CC(C)[C@@H](NC(=O)[C@@H](CCCNC(=N)N)N(C)C(=O)[C@H](C)NC(=O)[C@H](NC(=O)[C@@H](CCCNC(=N)N)NC(=O)[C@@H](C)NC(=O)[C@@H](Cc1ccc(O)cc1)NC(=O)[C@H](NC(=O)[C@H](NC(=O)[C@@H](Cc1c[nH]c2ccccc12)NC(=O)[C@H](N)CCCNC(=N)N)[C@H](C)O)C(C)C)C(C)C)C(=O)N[C@H](CCCNC(=N)N)C(=O)N[C@H](Cc1ccc(O)cc1)C(=O)N[C@H](CCCNC(=N)N)C(=O)N[C@H](CCCNC(=N)N)C(=O)N[C@@H](C(=O)N[C@H](Cc1c[nH]c2ccccc12)C(=O)O)[C@H](C)O [1f] (H-[dR][dW][dT][dV][dY][dA][dR][dV]A[dNMeR][dV][dR][dY][dR][dR][dT][dW]-OH) | – | – | 0.8 (≈ 1.85 µg/mL) | 0.4 (≈ 0.924 µg/mL) | 3.1 (≈ 7.16 µg/mL) | 100 | 3.1 (≈ 7.16 µg/mL) | 3.1 (≈ 7.16 µg/mL) | 0.4 (≈ 0.924 µg/mL) | – |
